PubChem BioAssay (NCI)
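Assay format: 96-well plates, 48-hour exposure. GI50: concentration for 50% inhibition of growth. TGI marks complete inhibition of growth.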

Key:
Assay in all cases: NCI anticancer screen, dose series, 48 h; in the data active = GI50 below about 0.43 µM; inactive = the rest
786-0 renal = test system: 786-0 renal
A498 renal = test system: A498 renal
A549 NSCLC = test system: A549 NSCLC
BT-549 breast = test system: BT-549 breast
CAKI-1 renal = test system: CAKI-1 renal
CCRF-CEM leukemia = test system: CCRF-CEM leukemia
COLO 205 colon = test system: COLO 205 colon
DU-145 prostate = test system: DU-145 prostate
HCC-2998 colon = test system: HCC-2998 colon
HCT-116 colon = test system: HCT-116 colon
HCT-15 colon = test system: HCT-15 colon
HL-60(TB) leukemia = test system: HL-60(TB) leukemia
HOP-62 NSCLC = test system: HOP-62 NSCLC
HOP-92 NSCLC = test system: HOP-92 NSCLC
HS 578T breast = test system: HS 578T breast
HT29 colon = test system: HT29 colon
IGROV1 ovarian = test system: IGROV1 ovarian
K-562 leukemia = test system: K-562 leukemia
KM12 colon = test system: KM12 colon
LOX IMVI melanoma = test system: LOX IMVI melanoma
M14 melanoma = test system: M14 melanoma
MALME-3M melanoma = test system: MALME-3M melanoma
MCF7 breast = test system: MCF7 breast
MDA-MB-231 breast = test system: MDA-MB-231 breast
MDA-MB-435 = test system: MDA-MB-435
MOLT-4 leukemia = test system: MOLT-4 leukemia
NCI-H226 lung = test system: NCI-H226 lung
NCI-H23 lung = test system: NCI-H23 lung
NCI-H460 lung = test system: NCI-H460 lung
NCI-H522 lung = test system: NCI-H522 lung
NCI/ADR-RES ovarian = test system: NCI/ADR-RES ovarian
OVCAR-3 ovarian = test system: OVCAR-3 ovarian
OVCAR-4 ovarian = test system: OVCAR-4 ovarian
OVCAR-8 ovarian = test system: OVCAR-8 ovarian
PC-3 prostate = test system: PC-3 prostate
RPMI-8226 leukemia = test system: RPMI-8226 leukemia
RXF 393 renal = test system: RXF 393 renal
SF-268 CNS = test system: SF-268 CNS
SF-295 CNS = test system: SF-295 CNS
SK-MEL-5 melanoma = test system: SK-MEL-5 melanoma
SK-OV-3 ovarian = test system: SK-OV-3 ovarian
SN12C renal = test system: SN12C renal
SNB-19 CNS = test system: SNB-19 CNS
SNB-75 CNS = test system: SNB-75 CNS
SR leukemia = test system: SR leukemia
SW-620 colon = test system: SW-620 colon
T-47D breast = test system: T-47D breast
TK-10 renal = test system: TK-10 renal
U251 CNS = test system: U251 CNS
UACC-257 melanoma = test system: UACC-257 melanoma
UACC-62 melanoma = test system: UACC-62 melanoma
UO-31 renal = test system: UO-31 renal

CC(C)(C)OC(=O)N[C@@H](Cc1ccccc1)C(=O)N(Cc1ccccc1)C1(C(=O)NCc2ccccc2)CCN(Cc2ccccc2)CC1
8 µM: TGI (BT-549 breast)
6.1 µM: TGI (HL-60(TB) leukemia)
87.6 µM: TGI (NCI-H460 lung)
> 100 µM: TGI (A549 NSCLC) | TGI (CAKI-1 renal) | TGI (CCRF-CEM leukemia) | TGI (DU-145 prostate) | TGI (HCC-2998 colon) | TGI (HCT-15 colon) | TGI (HOP-62 NSCLC) | TGI (HS 578T breast) | TGI (IGROV1 ovarian) | TGI (K-562 leukemia) | TGI (KM12 colon) | TGI (MDA-MB-435) | TGI (NCI-H226 lung) | TGI (NCI-H23 lung) | TGI (NCI-H522 lung) | TGI (OVCAR-3 ovarian) | TGI (OVCAR-4 ovarian) | TGI (OVCAR-8 ovarian) | TGI (PC-3 prostate) | TGI (RXF 393 renal) | TGI (SF-268 CNS) | TGI (SF-295 CNS) | TGI (SK-OV-3 ovarian) | TGI (SN12C renal) | TGI (SNB-19 CNS) | TGI (SNB-75 CNS) | TGI (SW-620 colon) | TGI (T-47D breast) | TGI (U251 CNS) | TGI (UACC-257 melanoma) | TGI (UO-31 renal)
70.3 µM: TGI (TK-10 renal)
6.98 µM: TGI (RPMI-8226 leukemia)
3.32 µM: TGI (COLO 205 colon)
inactive: GI50 (786-0 renal) 2.99 µM | GI50 (A498 renal) 1.43 µM | GI50 (A549 NSCLC) 3.85 µM | GI50 (BT-549 breast) 2.11 µM | GI50 (CAKI-1 renal) 2.32 µM | GI50 (CCRF-CEM leukemia) 3.35 µM | GI50 (COLO 205 colon) 1.65 µM | GI50 (DU-145 prostate) 5.38 µM | GI50 (HCC-2998 colon) 4.54 µM | GI50 (HCT-116 colon) 2.42 µM | GI50 (HCT-15 colon) 3.16 µM | GI50 (HL-60(TB) leukemia) 2.5 µM | GI50 (HOP-62 NSCLC) 3.89 µM | GI50 (HOP-92 NSCLC) 1.45 µM | GI50 (HS 578T breast) 4.22 µM | GI50 (HT29 colon) 2.16 µM | GI50 (IGROV1 ovarian) 5.7 µM | GI50 (K-562 leukemia) 3.39 µM | GI50 (KM12 colon) 4.12 µM | GI50 (LOX IMVI melanoma) 3.65 µM | GI50 (M14 melanoma) 2.6 µM | GI50 (MALME-3M melanoma) 3.02 µM | GI50 (MCF7 breast) 2.82 µM | GI50 (MDA-MB-231 breast) 3.01 µM | GI50 (MDA-MB-435) 3.04 µM | GI50 (MOLT-4 leukemia) 1.83 µM | GI50 (NCI-H226 lung) 3.2 µM | GI50 (NCI-H23 lung) 5.67 µM | GI50 (NCI-H460 lung) 3 µM | GI50 (NCI-H522 lung) 4.02 µM | GI50 (NCI/ADR-RES ovarian) 2.85 µM | GI50 (OVCAR-3 ovarian) 3.95 µM | GI50 (OVCAR-4 ovarian) 3.23 µM | GI50 (OVCAR-8 ovarian) 3.51 µM | GI50 (PC-3 prostate) 2.46 µM | GI50 (RPMI-8226 leukemia) 2.18 µM | GI50 (RXF 393 renal) 3.12 µM | GI50 (SF-268 CNS) 4.88 µM | GI50 (SF-295 CNS) 2.9 µM | GI50 (SK-MEL-5 melanoma) 1.73 µM | GI50 (SK-OV-3 ovarian) 3 µM | GI50 (SN12C renal) 3.45 µM | GI50 (SNB-19 CNS) 5.27 µM | GI50 (SNB-75 CNS) 2.97 µM | GI50 (SR leukemia) 2.33 µM | GI50 (SW-620 colon) 3.49 µM | GI50 (T-47D breast) 2.89 µM | GI50 (TK-10 renal) 3.17 µM | GI50 (U251 CNS) 3.19 µM | GI50 (UACC-257 melanoma) 2.54 µM | GI50 (UACC-62 melanoma) 2.54 µM | GI50 (UO-31 renal) 2.16 µM
6.33 µM: TGI (MOLT-4 leukemia)
7.88 µM: TGI (UACC-62 melanoma)
19.3 µM: TGI (MCF7 breast)
6.36 µM: TGI (A498 renal)
46.9 µM: TGI (NCI/ADR-RES ovarian)
6.82 µM: TGI (HT29 colon)
44.5 µM: TGI (M14 melanoma)
10.1 µM: TGI (HCT-116 colon)
43.3 µM: TGI (786-0 renal)
21.2 µM: TGI (LOX IMVI melanoma)
3.29 µM: TGI (SK-MEL-5 melanoma)
79 µM: TGI (MDA-MB-231 breast)
7.51 µM: TGI (SR leukemia)
5.33 µM: TGI (HOP-92 NSCLC)
